Measured values: US20180110754A1, “CENICRIVIROC FOR THE TREATMENT OF FIBROSIS” (Tobira Therapeutics, Inc., priority 2015, published 2018)
Read-outs that look alike come from different tables or passages of the source.

Conditions: for SAE: Suicidal ideation, n subjects: through Week 48
Text: Subjects with a history of HIV-2, hepatitis B and/or C, cirrhosis of the liver or any known active or chronic active liver disease were excluded from the study.
Most AEs were mild or moderate (Grade 1 or Grade 2). […] None of the Grade ≥3 AEs (preferred terms) were reported in more than 1 subject.

CCCCOCCOc1ccc(-c2ccc3c(c2)/C=C(/C(=O)Nc2ccc([S@@+]([O-])Cc4cncn4CCC)cc2)CCCN3CC(C)C)cc1 [CVC, (S)-8-[4-(2-Butoxyethoxy)phenyl]-1-isobutyl-N-(4-{[(1-propyl-1H-imidazol-5-yl)methyl]sulfinyl}phenyl)-1,2,3,4-tetrahydro-1-benzazocine-5-carboxamide]
Grade 3 or 4 AE: Blindness unilateral, n subjects (CVC 100 mg (N = 58)): 0 | Grade 3 or 4 AE: Blood creatine phosphokinase increased, n subjects (CVC 100 mg (N = 58)): 0 | Grade 3 or 4 AE: Cardiac disorders, n subjects (CVC 100 mg (N = 58)): 1 | Grade 3 or 4 AE: Corneal infection, n subjects (CVC 100 mg (N = 58)): 0 | Grade 3 or 4 AE: Suicidal ideation, n subjects (CVC 100 mg (N = 58)): 0 | SAE: Suicidal ideation, n subjects (CVC 100 mg (N = 58)): 0 | Any AE, n subjects (CVC 200 mg (N = 57)): 48 | Any Grade 3 AE, n subjects (CVC 200 mg (N = 57)): 3 | Any Grade 4 AE, n subjects (CVC 200 mg (N = 57)): 0 | Deaths (CVC 200 mg (N = 57)): 0 n | Grade 3 or 4 AE: Abdominal pain, n subjects (CVC 200 mg (N = 57)): 0 | Grade 3 or 4 AE: Blindness unilateral, n subjects (CVC 200 mg (N = 57)): 1 | Grade 3 or 4 AE: Blood creatine phosphokinase increased, n subjects (CVC 200 mg (N = 57)): 1 | Grade 3 or 4 AE: Cardiac disorders, n subjects (CVC 200 mg (N = 57)): 0 | Grade 3 or 4 AE: Corneal infection, n subjects (CVC 200 mg (N = 57)): 1 | Grade 3 or 4 AE: Suicidal ideation, n subjects (CVC 200 mg (N = 57)): 0 | SAE: Suicidal ideation, n subjects (CVC 200 mg (N = 57)): 0 | Grade 3 or 4 AE: Blood creatine phosphokinase increased, n subjects (human, in vivo, 48 week): 1 | Grade 3 or 4 AE: Cardiac disorders, n subjects (human, in vivo, 48 week): 1 | Grade 3 or 4 AE: Depression, n subjects (human, in vivo, 48 week): 0 | Grade 3 or 4 AE: Ear and labyrinth disorders, n subjects (human, in vivo, 48 week): 0 | Grade 3 or 4 AE: Investigations, n subjects (human, in vivo, 48 week): 1 | Grade 3 or 4 AE: Palpitations, n subjects (human, in vivo, 48 week): 1 | Grade 3 or 4 AE: Psychiatric disorders, n subjects (human, in vivo, 48 week): 1 | Grade 3 or 4 AE: Stress, n subjects (human, in vivo, 48 week): 1 | Grade 3 or 4 AE: Weight decreased, n subjects (human, in vivo, 48 week): 0 | AE Abnormal dreams, n subjects (human, in vivo, 48 weeks): 9 | AE Depression, n subjects (human, in vivo, 48 weeks): 3 | AE Diarrhoea, n subjects (human, in vivo, 48 weeks): 17 | AE Dizziness, n subjects (human, in vivo, 48 weeks): 11 | AE Fatigue, n subjects (human, in vivo, 48 weeks): 14 | AE Headache, n subjects (human, in vivo, 48 weeks): 16 | AE Insomnia, n subjects (human, in vivo, 48 weeks): 7 | AE Lymphadenopathy, n subjects (human, in vivo, 48 weeks): 7 | AE Nasopharyngitis, n subjects (human, in vivo, 48 weeks): 10 | AE Nausea, n subjects (human, in vivo, 48 weeks): 18 | AE Rash, n subjects (human, in vivo, 48 weeks): 14 | AE Syphilis, n subjects (human, in vivo, 48 weeks): 1 | AE Upper respiratory tract infection, n subjects (human, in vivo, 48 weeks): 18 | AE leading to discontinuation: Abnormal dreams, n subjects (human, in vivo, 48 weeks): 0 | AE leading to discontinuation: Aggression, n subjects (human, in vivo, 48 weeks): 1 | AE leading to discontinuation: Anxiety, n subjects (human, in vivo, 48 weeks): 0 | AE leading to discontinuation: Depression, n subjects (human, in vivo, 48 weeks): 1 | AE leading to discontinuation: Dermatitis allergic, n subjects (human, in vivo, 48 weeks): 0 | AE leading to discontinuation: Disturbance in attention, n subjects (human, in vivo, 48 weeks): 0 | AE leading to discontinuation: Dizziness, n subjects (human, in vivo, 48 weeks): 0 | AE leading to discontinuation: Ear and labyrinth disorders, n subjects (human, in vivo, 48 weeks): 0 | AE leading to discontinuation: Eye disorders, n subjects (human, in vivo, 48 weeks): 0 | AE leading to discontinuation: Gastrointestinal disorders, n subjects (human, in vivo, 48 weeks): 0 | AE leading to discontinuation: General disorders and administration site conditions, n subjects (human, in vivo, 48 weeks): 1 | AE leading to discontinuation: Hypoaesthesia, n subjects (human, in vivo, 48 weeks): 0 | AE leading to discontinuation: Insomnia, n subjects (human, in vivo, 48 weeks): 0 | AE leading to discontinuation: Malaise, n subjects (human, in vivo, 48 weeks): 1 | AE leading to discontinuation: Musculoskeletal and connective tissue disorders, n subjects (human, in vivo, 48 weeks): 0 | AE leading to discontinuation: Musculoskeletal discomfort, n subjects (human, in vivo, 48 weeks): 0 | AE leading to discontinuation: Nausea, n subjects (human, in vivo, 48 weeks): 0 | AE leading to discontinuation: Nervous system disorders, n subjects (human, in vivo, 48 weeks): 0 | AE leading to discontinuation: Photophobia, n subjects (human, in vivo, 48 weeks): 0 | AE leading to discontinuation: Psychiatric disorders, n subjects (human, in vivo, 48 weeks): 1 | AE leading to discontinuation: Rash, n subjects (human, in vivo, 48 weeks): 0 | AE leading to discontinuation: Skin and subcutaneous tissue disorders, n subjects (human, in vivo, 48 weeks): 0 | AE leading to discontinuation: Tachyphrenia, n subjects (human, in vivo, 48 weeks): 0 | AE leading to discontinuation: Thinking abnormal, n subjects (human, in vivo, 48 weeks): 1 | AE leading to discontinuation: Tinnitus, n subjects (human, in vivo, 48 weeks): 0 | Any AE leading to discontinuation of study drug, n subjects (human, in vivo, 48 weeks): 1 | Any AE, n subjects (human, in vivo, 48 weeks): 99 | Any Grade 3 AE, n subjects (human, in vivo, 48 weeks): 5 | Any Grade 4 AE, n subjects (human, in vivo, 48 weeks): 0 | Any SAE, n subjects (human, in vivo, 48 weeks): 2 | Grade 3 or 4 AE: Abdominal pain, n subjects (human, in vivo, 48 weeks): 1 | Grade 3 or 4 AE: Blindness unilateral, n subjects (human, in vivo, 48 weeks): 1 | Grade 3 or 4 AE: Corneal infection, n subjects (human, in vivo, 48 weeks): 1 | Grade 3 or 4 AE: Dermatitis allergic, n subjects (human, in vivo, 48 weeks): 0 | Grade 3 or 4 AE: Eye disorders, n subjects (human, in vivo, 48 weeks): 1 | Grade 3 or 4 AE: Gastrointestinal disorders, n subjects (human, in vivo, 48 weeks): 1 | Grade 3 or 4 AE: General disorders and administration site conditions, n subjects (human, in vivo, 48 weeks): 1 | Grade 3 or 4 AE: Infections and infestations, n subjects (human, in vivo, 48 weeks): 1 | Grade 3 or 4 AE: Pyrexia, n subjects (human, in vivo, 48 weeks): 1 | Grade 3 or 4 AE: Skin and subcutaneous tissue disorders, n subjects (human, in vivo, 48 weeks): 0 | Grade 3 or 4 AE: Tinnitus, n subjects (human, in vivo, 48 weeks): 0 | SAE: Blindness unilateral, n subjects (human, in vivo, 48 weeks): 1 | SAE: Corneal infection, n subjects (human, in vivo, 48 weeks): 1 | SAE: Depression, n subjects (human, in vivo, 48 weeks): 0 | SAE: Eye disorders, n subjects (human, in vivo, 48 weeks): 1 | SAE: Gastroenteritis, n subjects (human, in vivo, 48 weeks): 1 | SAE: Infections and infestations, n subjects (human, in vivo, 48 weeks): 2 | SAE: Psychiatric disorders, n subjects (human, in vivo, 48 weeks): 0 | Subjects who experienced a Grade ≥3 AE (human, in vivo, 48 weeks): 4% | Subjects with AEs, worst grade severity Grade 4 (human, in vivo, 48 weeks): 0 n
